Reference: the NIST ThermoML archive (doi:10.1021/je034087q)

Test: xn = mol fraction of the nth substance listed
Conditions: Fluid (supercritical or subcritical phases)

CC(C)=O [acetone] + O=C=O
Conditions	mass density [kg/m3]
335.15 K, 10350 kPa, x2 = 0.909	583
335.15 K, 10420 kPa, x2 = 0.909	589
335.15 K, 10500 kPa, x2 = 0.909	593
335.15 K, 10590 kPa, x2 = 0.909	599
335.15 K, 10680 kPa, x2 = 0.909	604
335.15 K, 10780 kPa, x2 = 0.909	611
335.15 K, 10890 kPa, x2 = 0.909	616
335.15 K, 11020 kPa, x2 = 0.909	623
335.15 K, 11150 kPa, x2 = 0.909	628
335.15 K, 11280 kPa, x2 = 0.909	635
335.15 K, 11440 kPa, x2 = 0.909	640
335.15 K, 11600 kPa, x2 = 0.909	648
335.15 K, 11790 kPa, x2 = 0.909	653
335.15 K, 12010 kPa, x2 = 0.909	661
335.15 K, 12240 kPa, x2 = 0.909	667
335.15 K, 12460 kPa, x2 = 0.909	675
335.15 K, 12750 kPa, x2 = 0.909	681
335.15 K, 13080 kPa, x2 = 0.909	691
335.15 K, 13400 kPa, x2 = 0.909	697
335.15 K, 13770 kPa, x2 = 0.909	706
335.15 K, 14150 kPa, x2 = 0.909	711
335.15 K, 14600 kPa, x2 = 0.909	721
336.35 K, 9960 kPa, x2 = 0.902	531
336.35 K, 10000 kPa, x2 = 0.902	535
336.35 K, 10030 kPa, x2 = 0.902	538
336.35 K, 10080 kPa, x2 = 0.902	542
336.35 K, 10110 kPa, x2 = 0.902	545
336.35 K, 10150 kPa, x2 = 0.902	547
336.35 K, 10190 kPa, x2 = 0.902	551
336.35 K, 10230 kPa, x2 = 0.902	555
336.35 K, 10260 kPa, x2 = 0.902	558
336.35 K, 10310 kPa, x2 = 0.902	561
336.35 K, 10360 kPa, x2 = 0.902	566
336.35 K, 10390 kPa, x2 = 0.902	569
336.35 K, 10450 kPa, x2 = 0.902	573
336.35 K, 10540 kPa, x2 = 0.902	579
336.35 K, 10610 kPa, x2 = 0.902	583
336.35 K, 10710 kPa, x2 = 0.902	590
336.35 K, 10810 kPa, x2 = 0.902	595
336.35 K, 10910 kPa, x2 = 0.902	602
336.35 K, 11020 kPa, x2 = 0.902	606
336.35 K, 11100 kPa, x2 = 0.902	611
336.35 K, 11200 kPa, x2 = 0.902	616
336.35 K, 11320 kPa, x2 = 0.902	620
336.35 K, 11420 kPa, x2 = 0.902	625
336.35 K, 11570 kPa, x2 = 0.902	631
336.35 K, 11700 kPa, x2 = 0.902	638
336.35 K, 11790 kPa, x2 = 0.902	641
336.35 K, 11950 kPa, x2 = 0.902	645
336.35 K, 12080 kPa, x2 = 0.902	649
336.35 K, 12210 kPa, x2 = 0.902	654
336.35 K, 12400 kPa, x2 = 0.902	659
336.35 K, 12570 kPa, x2 = 0.902	663
336.35 K, 12710 kPa, x2 = 0.902	668
336.35 K, 12940 kPa, x2 = 0.902	673
336.35 K, 13140 kPa, x2 = 0.902	678
336.35 K, 13320 kPa, x2 = 0.902	684
336.35 K, 13580 kPa, x2 = 0.902	688
336.35 K, 13900 kPa, x2 = 0.902	694
336.35 K, 14180 kPa, x2 = 0.902	701
336.35 K, 14450 kPa, x2 = 0.902	706
336.35 K, 14700 kPa, x2 = 0.902	710
336.35 K, 14920 kPa, x2 = 0.902	715
338.15 K, 10080 kPa, x2 = 0.902	511
338.15 K, 10110 kPa, x2 = 0.902	515
338.15 K, 10180 kPa, x2 = 0.902	520
338.15 K, 10230 kPa, x2 = 0.902	524
338.15 K, 10280 kPa, x2 = 0.902	529
338.15 K, 10340 kPa, x2 = 0.902	533
338.15 K, 10380 kPa, x2 = 0.902	538
338.15 K, 10430 kPa, x2 = 0.902	542
338.15 K, 10500 kPa, x2 = 0.902	548
338.15 K, 10560 kPa, x2 = 0.902	552
338.15 K, 10640 kPa, x2 = 0.902	558
338.15 K, 10710 kPa, x2 = 0.902	563
338.15 K, 10780 kPa, x2 = 0.902	569
338.15 K, 10860 kPa, x2 = 0.902	573
338.15 K, 10910 kPa, x2 = 0.902	581
338.15 K, 10980 kPa, x2 = 0.902	584
338.15 K, 11080 kPa, x2 = 0.902	590
338.15 K, 11200 kPa, x2 = 0.902	595
338.15 K, 11280 kPa, x2 = 0.902	600
338.15 K, 11350 kPa, x2 = 0.902	603
338.15 K, 11420 kPa, x2 = 0.902	606
338.15 K, 11510 kPa, x2 = 0.902	610
338.15 K, 11590 kPa, x2 = 0.902	615
338.15 K, 11630 kPa, x2 = 0.902	616
338.15 K, 11710 kPa, x2 = 0.902	619
338.15 K, 11790 kPa, x2 = 0.902	622
338.15 K, 11880 kPa, x2 = 0.902	627
338.15 K, 11950 kPa, x2 = 0.902	629
338.15 K, 12040 kPa, x2 = 0.902	632
338.15 K, 12110 kPa, x2 = 0.902	634
338.15 K, 12240 kPa, x2 = 0.902	640
338.15 K, 12330 kPa, x2 = 0.902	642
338.15 K, 12460 kPa, x2 = 0.902	646
338.15 K, 12570 kPa, x2 = 0.902	651
338.15 K, 12700 kPa, x2 = 0.902	654
338.15 K, 12880 kPa, x2 = 0.902	659
338.15 K, 13010 kPa, x2 = 0.902	663
338.15 K, 13200 kPa, x2 = 0.902	668
338.15 K, 13320 kPa, x2 = 0.902	671
338.15 K, 13480 kPa, x2 = 0.902	675
338.15 K, 13710 kPa, x2 = 0.902	680
338.15 K, 13860 kPa, x2 = 0.902	684
338.15 K, 14080 kPa, x2 = 0.902	689
338.15 K, 14300 kPa, x2 = 0.902	693
338.15 K, 14560 kPa, x2 = 0.902	699
338.15 K, 14780 kPa, x2 = 0.902	700
338.15 K, 15010 kPa, x2 = 0.902	705
